Reference: the supplement of paper PMC13386468
pIC50: −log10 of the molar value.

Legend:
Experiment in all cases: IC50 for competition of protein binding to Kinobeads
Settings in all cases: assay detail: Kinobeads competition in P. falciparum blood-stage lysate
A0A143ZZT8 = molecular target: A0A143ZZT8
UniProt C0H4K8 = molecular target: UniProt C0H4K8
UniProt C0H4L1 = molecular target: UniProt C0H4L1
UniProt C0H4Z7 = molecular target: UniProt C0H4Z7
UniProt C0H530 = molecular target: UniProt C0H530
UniProt C6KSR5 = molecular target: UniProt C6KSR5
UniProt C6KSV4 = molecular target: UniProt C6KSV4
UniProt C6KSX2 = molecular target: UniProt C6KSX2
UniProt C6KTB3 = molecular target: UniProt C6KTB3
UniProt C6KTE1 = molecular target: UniProt C6KTE1
UniProt O77376 = molecular target: UniProt O77376
UniProt O96198 = molecular target: UniProt O96198
UniProt O96203 = molecular target: UniProt O96203
UniProt Q7K6A4 = molecular target: UniProt Q7K6A4
UniProt Q7K6A5 = molecular target: UniProt Q7K6A5
Sequence of UniProt Q7K6A5 (Q7K6A5 whole entry): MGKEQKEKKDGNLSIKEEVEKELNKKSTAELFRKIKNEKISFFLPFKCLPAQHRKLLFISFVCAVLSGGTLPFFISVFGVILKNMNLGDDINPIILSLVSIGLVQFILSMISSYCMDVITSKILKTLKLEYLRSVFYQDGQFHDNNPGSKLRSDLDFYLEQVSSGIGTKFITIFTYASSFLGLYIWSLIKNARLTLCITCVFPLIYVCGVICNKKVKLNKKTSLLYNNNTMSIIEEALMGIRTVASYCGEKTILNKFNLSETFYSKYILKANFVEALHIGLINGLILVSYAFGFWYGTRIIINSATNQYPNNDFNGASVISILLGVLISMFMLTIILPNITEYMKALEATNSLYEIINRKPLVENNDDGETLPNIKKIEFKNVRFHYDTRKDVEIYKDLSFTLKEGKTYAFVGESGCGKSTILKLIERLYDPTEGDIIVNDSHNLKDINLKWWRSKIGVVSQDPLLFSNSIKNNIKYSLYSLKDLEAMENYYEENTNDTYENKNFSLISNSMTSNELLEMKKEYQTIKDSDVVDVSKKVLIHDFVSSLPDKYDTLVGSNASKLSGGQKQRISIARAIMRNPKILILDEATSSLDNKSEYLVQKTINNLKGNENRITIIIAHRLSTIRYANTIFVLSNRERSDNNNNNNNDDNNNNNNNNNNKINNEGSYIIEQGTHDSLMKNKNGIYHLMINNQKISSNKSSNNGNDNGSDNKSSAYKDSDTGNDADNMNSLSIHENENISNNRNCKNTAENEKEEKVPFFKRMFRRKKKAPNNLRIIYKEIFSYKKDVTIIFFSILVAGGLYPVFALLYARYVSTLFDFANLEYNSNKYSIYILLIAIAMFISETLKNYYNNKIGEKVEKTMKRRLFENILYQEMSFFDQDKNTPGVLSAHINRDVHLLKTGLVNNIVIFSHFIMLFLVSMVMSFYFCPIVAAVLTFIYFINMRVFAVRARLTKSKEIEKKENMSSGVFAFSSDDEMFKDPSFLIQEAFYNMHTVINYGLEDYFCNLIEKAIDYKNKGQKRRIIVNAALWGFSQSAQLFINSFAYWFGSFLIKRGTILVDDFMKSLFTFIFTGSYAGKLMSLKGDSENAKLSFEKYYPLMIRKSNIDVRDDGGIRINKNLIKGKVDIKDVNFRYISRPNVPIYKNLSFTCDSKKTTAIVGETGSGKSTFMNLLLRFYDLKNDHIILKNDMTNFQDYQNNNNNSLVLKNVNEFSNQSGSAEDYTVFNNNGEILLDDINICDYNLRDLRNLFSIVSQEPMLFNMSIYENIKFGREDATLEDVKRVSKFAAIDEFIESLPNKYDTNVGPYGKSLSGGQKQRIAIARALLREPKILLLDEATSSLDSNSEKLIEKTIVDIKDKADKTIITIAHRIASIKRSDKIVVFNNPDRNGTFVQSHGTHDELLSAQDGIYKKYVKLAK

UniProt Q7K6B0 = molecular target: UniProt Q7K6B0
UniProt Q8I0V3 = molecular target: UniProt Q8I0V3
UniProt Q8I1U8 = molecular target: UniProt Q8I1U8
UniProt Q8I1V0 = molecular target: UniProt Q8I1V0
UniProt Q8I2V4 = molecular target: UniProt Q8I2V4
UniProt Q8I2Z8 = molecular target: UniProt Q8I2Z8
UniProt Q8I3V8 = molecular target: UniProt Q8I3V8
UniProt Q8I4U5 = molecular target: UniProt Q8I4U5
UniProt Q8I719 = molecular target: UniProt Q8I719
Sequence of UniProt Q8I719 (Q8I719 whole entry, looked up): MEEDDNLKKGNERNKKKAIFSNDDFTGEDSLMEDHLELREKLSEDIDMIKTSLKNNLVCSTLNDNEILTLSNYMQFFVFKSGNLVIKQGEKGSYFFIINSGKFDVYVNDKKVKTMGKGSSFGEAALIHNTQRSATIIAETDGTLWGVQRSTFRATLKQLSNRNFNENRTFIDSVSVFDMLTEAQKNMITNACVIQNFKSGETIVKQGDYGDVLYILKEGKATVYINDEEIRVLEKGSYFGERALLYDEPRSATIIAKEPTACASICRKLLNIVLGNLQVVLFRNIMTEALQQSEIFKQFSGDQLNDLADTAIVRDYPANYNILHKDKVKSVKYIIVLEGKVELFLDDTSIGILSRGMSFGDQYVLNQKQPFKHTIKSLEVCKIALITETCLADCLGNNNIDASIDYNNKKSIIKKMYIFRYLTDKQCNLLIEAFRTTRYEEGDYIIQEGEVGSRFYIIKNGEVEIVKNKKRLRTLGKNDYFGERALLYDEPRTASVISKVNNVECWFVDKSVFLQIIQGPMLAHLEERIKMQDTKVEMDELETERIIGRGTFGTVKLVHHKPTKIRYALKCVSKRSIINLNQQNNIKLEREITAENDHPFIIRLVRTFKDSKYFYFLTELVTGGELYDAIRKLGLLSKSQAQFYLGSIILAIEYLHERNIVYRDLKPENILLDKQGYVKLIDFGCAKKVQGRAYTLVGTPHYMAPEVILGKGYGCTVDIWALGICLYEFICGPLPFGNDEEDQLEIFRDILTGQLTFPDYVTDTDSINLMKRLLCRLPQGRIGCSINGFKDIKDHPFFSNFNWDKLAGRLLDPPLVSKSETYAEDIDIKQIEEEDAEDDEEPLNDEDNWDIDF

UniProt Q8IAW7 = molecular target: UniProt Q8IAW7
UniProt Q8IB31 = molecular target: UniProt Q8IB31
UniProt Q8IBV7 = molecular target: UniProt Q8IBV7
UniProt Q8IC35 = molecular target: UniProt Q8IC35
UniProt Q8ID59 = molecular target: UniProt Q8ID59
UniProt Q8IDM3 = molecular target: UniProt Q8IDM3
UniProt Q8IDN4 = molecular target: UniProt Q8IDN4
Sequence of UniProt Q8IDN4 (Q8IDN4 whole entry): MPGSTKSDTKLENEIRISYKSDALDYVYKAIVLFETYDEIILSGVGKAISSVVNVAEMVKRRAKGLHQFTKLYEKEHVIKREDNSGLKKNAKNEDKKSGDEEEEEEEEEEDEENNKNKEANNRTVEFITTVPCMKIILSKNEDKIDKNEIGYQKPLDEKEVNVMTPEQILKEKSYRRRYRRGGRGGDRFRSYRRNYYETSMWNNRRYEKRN

UniProt Q8IDW1 = molecular target: UniProt Q8IDW1
UniProt Q8IDY6 = molecular target: UniProt Q8IDY6
UniProt Q8IE43 = molecular target: UniProt Q8IE43
UniProt Q8IFP2 = molecular target: UniProt Q8IFP2
UniProt Q8IHY0 = molecular target: UniProt Q8IHY0
UniProt Q8IIA4 = molecular target: UniProt Q8IIA4
UniProt Q8IIB6 = molecular target: UniProt Q8IIB6
UniProt Q8IIF4 = molecular target: UniProt Q8IIF4
UniProt Q8IIR7 = molecular target: UniProt Q8IIR7
Sequence of UniProt Q8IIR7 (Q8IIR7 whole entry): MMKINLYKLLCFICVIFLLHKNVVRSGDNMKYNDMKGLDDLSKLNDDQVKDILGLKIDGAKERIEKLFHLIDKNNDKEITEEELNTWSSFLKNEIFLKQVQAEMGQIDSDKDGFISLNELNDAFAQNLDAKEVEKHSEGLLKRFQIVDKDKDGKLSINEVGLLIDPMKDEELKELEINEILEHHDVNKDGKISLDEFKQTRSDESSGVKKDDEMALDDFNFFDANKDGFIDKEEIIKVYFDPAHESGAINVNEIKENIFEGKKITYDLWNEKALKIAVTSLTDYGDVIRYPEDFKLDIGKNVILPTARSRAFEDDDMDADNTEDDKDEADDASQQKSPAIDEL

UniProt Q8IIW2 = molecular target: UniProt Q8IIW2
UniProt Q8IJE1 = molecular target: UniProt Q8IJE1
UniProt Q8IJZ7 = molecular target: UniProt Q8IJZ7
UniProt Q8IKL5 = molecular target: UniProt Q8IKL5
UniProt Q8IKS4 = molecular target: UniProt Q8IKS4
UniProt Q8IL71 = molecular target: UniProt Q8IL71
UniProt Q8ILL2 = molecular target: UniProt Q8ILL2
UniProt Q8ILP3 = molecular target: UniProt Q8ILP3
Sequence of UniProt Q8ILP3 (Q8ILP3 whole entry): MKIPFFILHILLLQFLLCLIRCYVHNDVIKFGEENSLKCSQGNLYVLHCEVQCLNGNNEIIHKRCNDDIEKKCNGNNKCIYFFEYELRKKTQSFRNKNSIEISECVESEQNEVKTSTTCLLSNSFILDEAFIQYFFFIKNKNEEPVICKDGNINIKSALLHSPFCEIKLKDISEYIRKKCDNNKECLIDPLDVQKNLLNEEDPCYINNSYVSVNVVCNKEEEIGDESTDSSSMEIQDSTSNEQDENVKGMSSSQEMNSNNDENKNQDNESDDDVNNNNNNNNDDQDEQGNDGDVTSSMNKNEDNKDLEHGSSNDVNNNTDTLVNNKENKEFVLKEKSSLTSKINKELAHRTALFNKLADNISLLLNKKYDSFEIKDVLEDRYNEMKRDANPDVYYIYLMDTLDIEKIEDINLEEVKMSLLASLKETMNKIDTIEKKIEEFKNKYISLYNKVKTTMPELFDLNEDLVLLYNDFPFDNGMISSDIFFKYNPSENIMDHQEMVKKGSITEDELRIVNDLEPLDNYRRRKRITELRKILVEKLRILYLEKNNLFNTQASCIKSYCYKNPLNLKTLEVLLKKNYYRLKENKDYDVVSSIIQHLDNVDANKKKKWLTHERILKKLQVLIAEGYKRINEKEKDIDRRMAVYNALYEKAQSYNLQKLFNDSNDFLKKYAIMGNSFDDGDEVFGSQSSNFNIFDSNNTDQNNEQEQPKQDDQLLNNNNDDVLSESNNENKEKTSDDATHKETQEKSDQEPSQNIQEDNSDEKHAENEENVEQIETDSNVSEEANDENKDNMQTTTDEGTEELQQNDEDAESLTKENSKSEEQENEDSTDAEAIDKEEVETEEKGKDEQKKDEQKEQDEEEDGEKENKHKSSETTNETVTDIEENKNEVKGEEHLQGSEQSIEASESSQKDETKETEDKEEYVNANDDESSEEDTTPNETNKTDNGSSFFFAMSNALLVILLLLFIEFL

UniProt Q8ILW9 = molecular target: UniProt Q8ILW9
Sequence of UniProt Q8ILW9 (Q8ILW9 whole entry): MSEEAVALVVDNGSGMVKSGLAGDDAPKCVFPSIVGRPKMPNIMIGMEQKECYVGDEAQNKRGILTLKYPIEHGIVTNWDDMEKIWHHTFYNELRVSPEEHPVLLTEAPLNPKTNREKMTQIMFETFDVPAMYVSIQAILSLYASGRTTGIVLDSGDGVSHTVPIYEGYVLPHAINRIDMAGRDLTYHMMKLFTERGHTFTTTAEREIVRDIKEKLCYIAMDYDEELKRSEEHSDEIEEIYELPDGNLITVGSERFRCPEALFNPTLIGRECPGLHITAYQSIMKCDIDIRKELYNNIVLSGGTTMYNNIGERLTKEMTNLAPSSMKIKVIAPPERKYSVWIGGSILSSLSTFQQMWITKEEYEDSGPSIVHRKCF

UniProt Q8IM15 = molecular target: UniProt Q8IM15
Sequence of UniProt Q8IM15 (Q8IM15 whole entry): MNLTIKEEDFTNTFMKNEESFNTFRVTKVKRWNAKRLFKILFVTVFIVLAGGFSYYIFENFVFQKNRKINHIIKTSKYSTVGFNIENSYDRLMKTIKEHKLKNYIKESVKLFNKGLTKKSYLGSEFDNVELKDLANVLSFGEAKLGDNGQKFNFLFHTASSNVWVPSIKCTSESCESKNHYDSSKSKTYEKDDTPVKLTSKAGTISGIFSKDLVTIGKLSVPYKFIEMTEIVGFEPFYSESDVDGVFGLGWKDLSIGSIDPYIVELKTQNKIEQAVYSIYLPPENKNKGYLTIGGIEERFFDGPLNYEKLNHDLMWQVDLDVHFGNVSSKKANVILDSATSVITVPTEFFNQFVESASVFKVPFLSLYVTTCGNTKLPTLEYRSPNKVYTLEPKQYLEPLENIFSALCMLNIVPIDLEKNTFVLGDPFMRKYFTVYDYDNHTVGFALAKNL

UniProt Q9U0I0 = molecular target: UniProt Q9U0I0

Measured: pIC50
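Further: native unpurified kinases from lysate captured on beads bearing immobilized kinase inhibitors, with bead-bound kinases quantified by mass spectrometry across compound doses.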

O=c1[nH]c2ccc(Cl)cc2c(NC2CN3CCC2CC3)c1-c1nc2ccccc2[nH]1 (stereo unspecified) [CHIR-124]
< 4.70: A0A143ZZT8 | UniProt C0H4K8 | UniProt C0H4L1 | UniProt C0H4Z7 | UniProt C0H530 | UniProt C6KSR5 | UniProt C6KSV4 | UniProt C6KSX2 | UniProt C6KTB3 | UniProt C6KTE1 | UniProt O77376 | UniProt O96198 | UniProt O96203 | UniProt Q7K6A4 | UniProt Q7K6A5 | UniProt Q7K6B0 | UniProt Q8I0V3 | UniProt Q8I1U8 | UniProt Q8I1V0 | UniProt Q8I2V4 | UniProt Q8I2Z8 | UniProt Q8I3V8 | UniProt Q8I4U5 | UniProt Q8I719 | UniProt Q8IAW7 | UniProt Q8IB31 | UniProt Q8IBV7 | UniProt Q8IC35 | UniProt Q8ID59 | UniProt Q8IDM3 | UniProt Q8IDN4 | UniProt Q8IDW1 | UniProt Q8IDY6 | UniProt Q8IE43 | UniProt Q8IFP2 | UniProt Q8IHY0 | UniProt Q8IIA4 | UniProt Q8IIB6 | UniProt Q8IIF4 | UniProt Q8IIR7 | UniProt Q8IIW2 | UniProt Q8IJE1 | UniProt Q8IJZ7 | UniProt Q8IKL5 | UniProt Q8IKS4 | UniProt Q8IL71 | UniProt Q8ILL2 | UniProt Q8ILP3 | UniProt Q8ILW9 | UniProt Q8IM15 | UniProt Q9U0I0
